{
  "source": "paper PMC7179198",
  "about": "“Chiral Pyridine-3,5-bis- (L-phenylalaninyl-L-leucinyl) Schiff Base Peptides as Potential Anticancer Agents: Design, Synthesis, and Molecular Docking Studies Targeting Lactate Dehydrogenase-A” (Molecules, 2020)",
  "key": {"MCF-7 xenografts": {"tested_on": "MCF-7 xenografts", "experiment": "In vivo human breast cancer xenograft", "set-up": "species or system nude mice", "details": "MCF-7 xenograft, eight days of treatment", "description": "In this section, we developed a breast cancer animal xenograft model for the evaluation of thein vivo anticancer potential of our newly prepared compounds. […] After wards, the noticeable effects were more or less constant up to 14 days of treatment. […] Our results are in good agreement with those previously published on the in vivo anticancer potential of Schiff bases owing to apoptosis induction.\nThe breast cancer xenograft model protocol was approved by the Institutional Animal Use and Care Committee of the University of Alabama at Birmingham (50-01-05-08B). Female athymic pathogen-free nude mice (nu/nu, 4–6 weeks) were used. Firstly, MCF-7 xenografts were initiated by implanting pellets slowly releasing estrogen for two months (1.7mg 17β-estradiol/pellet) subcutaneously in the female nude mice. After 24 h, confluent MCF-7 cells were harvested, washed two times with serum-free medium, re-suspended, and injected subcutaneously (s.c.) (5 × 10^6 cells, total volume 0.2 mL) into the left inguinal area of the mice. Caliper measurement was used to measure tumor growth in two perpendicular diameters of the implant after 48 h, and its volume was determined. Mice grafted with MCF-7 were divided into different groups (7–10 mice/group). Untreated mice received the solvent only. Treated groups received different prepared derivatives as previously described."}, "[1]": {"molecular_target": "T1, recombinant human LDHA protein (Homo sapiens, UniProt P00338)", "T1 construct": "purchased Abcam ab93699", "experiment": "LDHA inhibition assay (colorimetric NADH kit)", "assay_type": "biochemical", "method": "The newly synthesized compounds 4–6 were evaluated for their ability to inhibit LDHA in comparison with galloflavin as a known isoform nonselective LDHA inhibitor [44, 45]. The choice of galloflavin as a reference was based on the fact that it is potent anticancer agent and commercially available.\nLactate dehydrogenase assay kit (Abcam, ab102526) and recombinant human LDHA protein (Abcam, ab93699) were used to assess the inhibitory effect of the tested compounds. First, we generated an NADH standard curve for colorimetric detection by measuring the OD (450 nm) at different molar amounts of NADH. The linear regression equation of the curve was derivatized in Graphpad Prism. Tested compounds were dissolved in DMSO and their inhibitory activity was assessed at 140 and 300 μM strength. Galloflavin (Sigma, SML0776) at the same molar concentration was used as a known LDH inhibitor. The master reaction mix composed of LDH assay buffer and 10 ng human LDHA […] per reaction was prepared. Tested compounds were added and the final reaction volume was adjusted to 50 μL. Absorbance at 450 nm was taken after 2–3 min (T-initial) and continued every minute for 118 min (T-final). The change in measurement over time (delta A450) was calculated as T-final minus T-initial. The amount of NADH generated by the assay between T-initial and T-final was deduced by comparing the A450 of each sample to the standard NADH standard curve. LDHA activity was calculated in milliunits per mL as the amount of NADH generated by the assay / (reaction time in minutes (118) x reaction volume in mL ([…])."}},
  "data": [
    {"smiles": "CC(=NNC(=O)C(CC(C)C)NC(=O)C(Cc1ccccc1)NC(=O)c1cncc(C(=O)NC(Cc2ccccc2)C(=O)NC(CC(C)C)C(=O)NN=C(C)c2ccc([N+](=O)[O-])cc2)c1)c1ccc([N+](=O)[O-])cc1", "note": "(stereo not drawn) [5e, N^3,N^5-Bis{1-[(4-methyl-1-(2-(1-(4-nitrophenyl)ethylidene)hydrazinyl)-1-oxopentan-2-yl)-amino]-1-oxo-3-phenylpropan-2-yl}pyridine-3,5-dicarboxamide]", "values": [
      {"measurement": "decrease in tumor growth", "setting": "MCF-7 xenografts", "result": 74.2, "unit": "%"},
      {"measurement": "IC50", "setting": "[1]; recombinant human LDHA", "result": "141.6 ± 0.98", "unit": "µM"},
      {"measurement": "fold increase in LDHA inhibitory activity compared with galloflavin", "setting": "[1]; vs galloflavin", "result": "~1.14", "unit": "fold"}
    ]}
  ]
}
